{"source": "patent US20220296722A1", "about": "“CONJUGATES AND CONJUGATES FOR USE IN PREVENTING OR TREATING OF BRAIN DAMAGE AND NEURODEGENERATIVE DISEASES” (MEDICORTEX FINLAND OY, priority 2019, published 2022)", "key": {"[1]": {"test": "Modified Irwin procedure: overt behavioural and physiological parameters after a single intraperitoneal dose", "format": "in vivo, Male CD-1 (ICR) mice", "conditions": "for behavioural or physiological changes (modified Irwin): single dose, 3 mice, assessed 0.25-24 h", "method": "(§1) MCF-013 was formulated as a clear solution by dissolving in 10% final volume ethanol and then making up to full volume with saline at concentrations of 0.1, 0.3, 1 and 4 mg provided material/mL. This provided doses of 1, 3, 10 and 40 mg provided material/kg when administered intraperitoneally in 10 ml/kg dosing volumes.\n(§2) Male CD-1 (ICR) mice were acclimatised to the procedure room. Groups of 3 mice were administered with vehicle (ethanol:saline) [10:90], or MCF-013 at 1, 3, 10 or 40 mg/kg intraperitoneally in 10 mL/kg dosing volumes. Doses were administered in an escalating dose order. […] These tissues were then excised and weighed and any with overt macroscopic abnormalities were to be placed in 10 volumes neutral buffered formalin solution (Sigma Cat no: HT501128)."}, "[2]": {"test": "Gross macroscopic examination and weighing of major organs at 24 h after dosing", "format": "in vivo, Male CD-1 (ICR) mice", "method": "as §1, §2"}}}
{"smiles": "O=C(Nc1ccccc1OCCOc1ccc(O)c(O)c1OC[C@H]1O[C@@H](O)[C@H](O)[C@@H](O)[C@@H]1O)c1cccc(O)c1O", "note": "[MCF-013, N-{o-[2-(2-{[(2R,3S,4S,5R,6R)-3,4,5,6-Tetrahydroxytetrahydro-2Hpyran-2-yl]methoxy}-3,4-dihydroxyphenoxy)ethoxy]phenyl}2,3-dihydroxybenzamide]", "values": [{"measurement": "behavioural or physiological changes (modified Irwin)", "setting": "[1]; 1 mg/kg intraperitoneally", "value": "One of three mice (No. 6) showed slight hunched posture at 0.5 and 1h, and slight piloerection 0.5 h after dosing"}, {"measurement": "behavioural or physiological changes (modified Irwin)", "setting": "[1]; 3 mg/kg intraperitoneally", "value": "One of three animals (mouse 9) showed slight hunched posture at 0.25 h after dosing"}, {"measurement": "behavioural or physiological changes (modified Irwin)", "setting": "[1]; 10 mg/kg intraperitoneally", "value": "no behavioural or physiological changes were noted"}, {"measurement": "behavioural or physiological changes (modified Irwin)", "setting": "[1]; 40 mg/kg intraperitoneally", "value": "no behavioural or physiological changes were noted"}, {"measurement": "tolerability over a 24 h period", "setting": "[1]; 1, 3, 10 and 40 mg provided material/kg intraperitoneally, mice, compared with ethanol:saline [10:90] vehicle", "value": "well tolerated"}, {"measurement": "gross macroscopic examination of the major organs", "setting": "[2]; 1 mg/kg intraperitoneally", "value": "caecum of mouse 6 was noted to be slightly distended with air"}, {"measurement": "organ weights", "setting": "[2]; 1 mg/kg intraperitoneally", "value": "normal"}, {"measurement": "gross macroscopic examination of the major organs", "setting": "[2]; 3 mg/kg intraperitoneally", "value": "no abnormalities"}, {"measurement": "organ weights", "setting": "[2]; 3 mg/kg intraperitoneally", "value": "normal"}, {"measurement": "gross macroscopic examination of the major organs", "setting": "[2]; 10 mg/kg intraperitoneally", "value": "no abnormalities"}, {"measurement": "organ weights", "setting": "[2]; 10 mg/kg intraperitoneally", "value": "normal"}, {"measurement": "gross macroscopic examination of the major organs", "setting": "[2]; 40 mg/kg intraperitoneally", "value": "no abnormalities"}, {"measurement": "organ weights", "setting": "[2]; 40 mg/kg intraperitoneally", "value": "normal"}]}
